Laboratory results published in US20230295118A1 (EnhancedBio Inc., priority 2022, published 2023).

Assays:
Format in all cases: cell-based
CDK6 = molecular target: T1, CDK6 (Homo sapiens, UniProt Q00534); assay: CDK6 degradation (DC50, Dmax)
T1 construct: endogenous in cells

[1] = test system: mantle cell lymphoma cell (Mino or JeKo-1); assay: Antiproliferative effect, MTS cell viability assay; conditions: 72 h; for IC50: mantle cell lymphoma cell (Mino or JeKo-1), MTS assay, read-out: IC50 (anti-proliferation); for inhibition of cell proliferation of Mino cells: 0-1 μM, result in words
Method in brief: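 Mino cells treated with compounds at 0, 0.0001, 0.001, 0.01, 0.1, 1 μM for 72 h; palbociclib and abemaciclib as positive controls. Viability by MTS, formazan absorbance read at 490 nm.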

CDK4 = molecular target: T2, CDK4 (Homo sapiens, UniProt P11802); assay: CDK4 degradation (DC50, Dmax)
T2 construct: endogenous in cells
T2 sequence (P11802 whole entry): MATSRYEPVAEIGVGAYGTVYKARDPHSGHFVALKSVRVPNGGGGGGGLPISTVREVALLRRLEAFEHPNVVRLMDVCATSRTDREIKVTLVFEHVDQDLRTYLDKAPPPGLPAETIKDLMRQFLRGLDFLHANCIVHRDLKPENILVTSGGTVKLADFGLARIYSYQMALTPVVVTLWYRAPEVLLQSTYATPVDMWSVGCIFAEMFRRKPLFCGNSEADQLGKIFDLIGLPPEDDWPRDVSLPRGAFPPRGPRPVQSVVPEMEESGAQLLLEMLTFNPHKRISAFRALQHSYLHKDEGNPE

T1 sequence (Q00534 whole entry): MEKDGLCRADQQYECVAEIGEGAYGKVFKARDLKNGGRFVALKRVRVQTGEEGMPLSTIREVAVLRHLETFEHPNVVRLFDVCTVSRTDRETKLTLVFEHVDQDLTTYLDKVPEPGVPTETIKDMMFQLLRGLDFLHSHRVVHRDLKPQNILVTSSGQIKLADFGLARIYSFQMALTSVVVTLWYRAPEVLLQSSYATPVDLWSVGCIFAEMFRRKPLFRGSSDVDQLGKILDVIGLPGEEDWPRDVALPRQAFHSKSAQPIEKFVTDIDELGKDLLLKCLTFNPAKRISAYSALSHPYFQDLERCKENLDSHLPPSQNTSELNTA

| DC50 (CDK6) | Dmax (CDK6) | IC50 [1] | DC50 (CDK4) | Dmax (CDK4) | SMILES | inhibition of cell proliferation of Mino cells [1] |
| --- | --- | --- | --- | --- | --- | --- |
| > 200 nM | > 60% | 50 to 200 nM | > 200 nM | > 60% | CC(=O)c1c(C)c2cnc(Nc3ccc(N4CCN(C5CCN(C(=O)N6CCN(c7ccc8c(c7)CN(C7CCC(=O)NC7=O)C8=O)CC6)CC5)CC4)cn3)nc2n(C2CCCC2)c1=O (stereo not shown) [Compound 36, 3-(5-(4-(4-(4-(6-((6-acetyl-8-cyclopentyl-5-methyl-7-oxo-7,8-dihydropyrido[2,3-d]pyrimidin-2-yl)amino)pyridin-3-yl)piperazin-1-yl)piperidine-1-carbonyl)piperazin-1-yl)-1-oxoisoindolin-2-yl)piperidine-2,6-dione] | – |
| > 200 nM | > 50% | > 200 nM | > 200 nM | > 50% | CC(=O)c1c(C)c2cnc(Nc3ccc(N4CCN(C5CCN(C(=O)N6CCC(c7ccc8c(c7)C(=O)N(C7CCC(=O)NC7=O)C8=O)CC6)CC5)CC4)cn3)nc2n(C2CCCC2)c1=O (stereo not shown) [Compound 37, 5-(1-(4-(4-(6-((6-acetyl-8-cyclopentyl-5-methyl-7-oxo-7,8-dihydropyrido[2,3-d]pyrimidin-2-yl)amino)pyridin-3-yl)piperazin-1-yl)piperidine-1-carbonyl)piperidin-4-yl)-2-(2,6-dioxopiperidin-3-yl)isoindoline-1,3-dione] | – |
| > 200 nM | > 50% | > 200 nM | > 200 nM | > 50% | CC(=O)c1c(C)c2cnc(Nc3ccc(N4CCN(C5CCN(C(=O)N6CCC(c7ccc8c(c7)CN(C7CCC(=O)NC7=O)C8=O)CC6)CC5)CC4)cn3)nc2n(C2CCCC2)c1=O (stereo not shown) [Compound 38, 3-(5-(1-(4-(4-(6-((6-acetyl-8-cyclopentyl-5-methyl-7-oxo-7,8-dihydropyrido[2,3-d]pyrimidin-2-yl)amino)pyridin-3-yl)piperazin-1-yl)piperidine-1-carbonyl)piperidin-4-yl)-1-oxoisoindolin-2-yl)piperidine-2,6-dione] | – |
| 50 to 200 nM | > 80% | < 50 nM | 50 to 200 nM | > 80% | CC(=O)c1c(C)c2cnc(Nc3ccc(N4CCN(C5CCN(C(=O)Nc6ccc7c(c6)C(=O)N(C6CCC(=O)NC6=O)C7=O)CC5)CC4)cn3)nc2n(C2CCCC2)c1=O (stereo not shown) [Compound 39, 4-(4-(6-((6-acetyl-8-cyclopentyl-5-methyl-7-oxo-7,8-dihydropyrido[2,3-d]pyrimidin-2-yl)amino)pyridin-3-yl)piperazin-1-yl)-N-(2-(2,6-dioxopiperidin-3-yl)-1,3-dioxoisoindolin-5-yl)piperidine-1-carboxamide] | – |
| 50 to 200 nM | > 80% | < 50 nM | 50 to 200 nM | > 60% | CC(=O)c1c(C)c2cnc(Nc3ccc(N4CCN(C5CCN(C(=O)Nc6ccc7c(c6)CN(C6CCC(=O)NC6=O)C7=O)CC5)CC4)cn3)nc2n(C2CCCC2)c1=O (stereo not shown) [Compound 40, 4-(4-(6-((6-acetyl-8-cyclopentyl-5-methyl-7-oxo-7,8-dibydropyrido[2,3-d]pyrimidin-2-yl)amino)pyridin-3-yl)piperazin-1-yl)-N-(2-(2,6-dioxopiperidin-3-yl)-1-oxoisoindolin-5-yl)piperidine-1-carboxamide] | – |
| 50 to 200 nM | > 80% | < 50 nM | < 50 nM | > 80% | CC(=O)c1c(C)c2cnc(Nc3ccc(N4CCN(CC5CCN(C(=O)Nc6ccc7c(c6)C(=O)N(C6CCC(=O)NC6=O)C7=O)CC5)CC4)cn3)nc2n(C2CCCC2)c1=O (stereo not shown) [Compound 41, 4-((4-(6-((6-acetyl-8-cyclopentyl-5-methyl-7-oxo-7,8-dihydropyrido[2,3-d]pyrimidin-2-yl)amino)pyridin-3-yl)piperazin-1-yl)methyl)-N-(2-(2,6-dioxopiperidin-3-yl)-1,3-dioxoisoindolin-5-yl)piperidine-1-carboxamide] | – |
| 50 to 200 nM | > 80% | 50 to 200 nM | 50 to 200 nM | > 80% | CC(=O)c1c(C)c2cnc(Nc3ccc(N4CCN(CC5CCN(C(=O)Nc6ccc7c(c6)CN(C6CCC(=O)NC6=O)C7=O)CC5)CC4)cn3)nc2n(C2CCCC2)c1=O (stereo not shown) [Compound 42, 4-((4-(6-((6-acetyl-8-cyclopentyl-5-methyl-7-oxo-7,8-dihydropyrido[2,3-d]pyrimidin-2-yl)amino)pyridin-3-yl)piperazin-1-yl)methyl)-N-(2-(2,6-dioxopiperidin-3-yl)-1-oxoisoindolin-5-yl)piperidine-1-carboxamide] | – |
| 50 to 200 nM | > 60% | 50 to 200 nM | 50 to 200 nM | > 60% | CC(=O)c1c(C)c2cnc(Nc3ccc(N4CCN(CCN5CCN(C(=O)Nc6ccc7c(c6)C(=O)N(C6CCC(=O)NC6=O)C7=O)CC5)CC4)cn3)nc2n(C2CCCC2)c1=O (stereo not shown) [Compound 43, 4-(2-(4-(6-((6-acetyl-8-cyclopentyl-5-methyl-7-oxo-7,8-dihydropyrido[2,3-d]pyrimidin-2-yl)amino)pyridin-3-yl)piperazin-1-yl)ethyl)-N-(2-(2,6-dioxopiperidin-3-yl)-1,3-dioxoisoindolin-5-yl)piperazine-1-carboxamide] | – |
| 50 to 200 nM | > 60% | 50 to 200 nM | 50 to 200 nM | > 60% | CC(=O)c1c(C)c2cnc(Nc3ccc(N4CCN(CCN5CCN(C(=O)Nc6ccc7c(c6)CN(C6CCC(=O)NC6=O)C7=O)CC5)CC4)cn3)nc2n(C2CCCC2)c1=O (stereo not shown) [Compound 44] | – |
| 50 to 200 nM | > 60% | 50 to 200 nM | 50 to 200 nM | > 60% | CC(=O)c1c(C)c2cnc(Nc3ccc(N4CCN(CCC5CCN(C(=O)Nc6ccc7c(c6)C(=O)N(C6CCC(=O)NC6=O)C7=O)CC5)CC4)cn3)nc2n(C2CCCC2)c1=O (stereo not shown) [Compound 45, 4-(2-(4-(6-((6-acetyl-8-cyclopentyl-5-methyl-7-oxo-7,8-dihydropyrido[2,3-d]pyrimidin-2-yl)amino)pyridin-3-yl)piperazin-1-yl)ethyl)-N-(2-(2,6-dioxopiperidin-3-yl)-1,3-dioxoisoindolin-5-yl)piperidine-1-carboxamide] | – |
| 50 to 200 nM | > 60% | 50 to 200 nM | > 200 nM | > 60% | CC(=O)c1c(C)c2cnc(Nc3ccc(N4CCN(CCC5CCN(C(=O)Nc6ccc7c(c6)CN(C6CCC(=O)NC6=O)C7=O)CC5)CC4)cn3)nc2n(C2CCCC2)c1=O (stereo not shown) [Compound 46, 4-(2-(4-(6-((6-acetyl-8-cyclopentyl-5-methyl-7-oxo-7,8-dihydropyrido[2,3-d]pyrimidin-2-yl)amino)pyridin-3-yl)piperazin-1-yl)ethyl)-N-(2-(2,6-dioxopiperidin-3-yl)-1-oxoisoindolin-5-yl)piperidine-1-carboxamide] | – |
| < 50 nM | > 80% | < 50 nM | < 50 nM | > 80% | CC(=O)c1c(C)c2cnc(Nc3ccc(N4CCN(CCNc5ccc6c(c5)C(=O)N(C5CCC(=O)NC5=O)C6=O)CC4)cn3)nc2n(C2CCCC2)c1=O (stereo not shown) [Compound 47, 5-((2-(4-(6-((6-acetyl-8-cyclopentyl-5-methyl-7-oxo-7,8-dihydropyrido[2,3-d]pyrimidin-2-yl)amino)pyridin-3-yl)piperazin-1-yl)ethyl)amino)-2-(2,6-dioxopiperidin-3-yl)isoindoline-1,3-dione] | dose-dependent inhibition of cell proliferation |
| < 50 nM | > 80% | < 50 nM | < 50 nM | > 80% | CC(=O)c1c(C)c2cnc(Nc3ccc(N4CCN(CCNc5ccc6c(c5)CN(C5CCC(=O)NC5=O)C6=O)CC4)cn3)nc2n(C2CCCC2)c1=O (stereo not shown) [Compound 48, 3-(5-((2-(4-(6-((6-acetyl-8-cyclopentyl-5-methyl-7-oxo-7,8-dihydropyrido[2,3-d]pyrimidin-2-yl)amino)pyridin-3-yl)piperazin-1-yl)ethyl)amino)-1-oxoisoindolin-2-yl)piperidine-2,6-dione] | – |
| < 50 nM | > 80% | < 50 nM | < 50 nM | > 80% | CC(=O)c1c(C)c2cnc(Nc3ccc(N4CCN(CCCNc5ccc6c(c5)CN(C5CCC(=O)NC5=O)C6=O)CC4)cn3)nc2n(C2CCCC2)c1=O (stereo not shown) [Compound 50, 3-(5-((3-(4-(6-((6-acetyl-8-cyclopentyl-5-methyl-7-oxo-7,8-dihydropyrido[2,3-d]pyrimidin-2-yl)amino)pyridin-3-yl)piperazin-1-yl)propyl)amino)-1-oxoisoindolin-2-yl)piperidine-2,6-dione] | dose-dependent inhibition of cell proliferation |
| 50 to 200 nM | > 80% | < 50 nM | 50 to 200 nM | > 80% | CC(=O)c1c(C)c2cnc(Nc3ccc(N4CCN(CCCNc5cc6c(cc5F)C(=O)N(C5CCC(=O)NC5=O)C6=O)CC4)cn3)nc2n(C2CCCC2)c1=O (stereo not shown) [Compound 51, 5-((3-(4-(6-((6-acetyl-8-cyclopentyl-5-methyl-7-oxo-7,8-dihydropyrido[2,3-d]pyrimidin-2-yl)amino)pyridin-3-yl)piperazin-1-yl)propyl)amino)-2-(2,6-dioxopiperidin-3-yl)-6-fluoroisoindoline-1,3-dione] | – |
| 50 to 200 nM | > 80% | < 50 nM | 50 to 200 nM | > 80% | CC(=O)c1c(C)c2cnc(Nc3ccc(N4CCN(CCCNc5cc6c(cc5F)C(=O)N(C5CCC(=O)NC5=O)C6)CC4)cn3)nc2n(C2CCCC2)c1=O (stereo not shown) [Compound 52, 3-(5-((3-(4-(6-((6-acetyl-8-cyclopentyl-5-methyl-7-oxo-7,8-dihydropyrido[2,3-d]pyrimidin-2-yl)amino)pyridin-3-yl)piperazin-1-yl)propyl)amino)-6-fluoro-1-oxoisoindolin-2-yl) piperidine-2,6-dione] | – |
